Experimental data published in US20150190416A1, “FILAGGRIN PRODUCTION PROMOTER, THERAPEUTIC AGENT FOR DISEASES ASSOCIATED WITH REDUCTION IN PRODUCTION OF FILAGGRIN, AND METHOD FOR SCREENING FOR SAID THERAPEUTIC AGENT” (KYOTO UNIVERSITY, priority 2012, published 2015).

Tests used:
Assay type in all cases: cell-based, human
[1] = test system: GPR22; assay: G protein-coupled receptor (GPCR) array in NHEK cells, GPR22 (Example 3); conditions: Compound 1 1 μM, 3 days
Description: (§1) In this example, the expression-increasing effect of Compound 1 on a GPCR in NHEK cells was confirmed by using a GPCR array.
(§2) 1) 5×10^4 cells/well of NHEK cells (Invitrogen) were plated on a 24-well plate, and then 500 μl of a culture medium containing a medium for proliferating normal human epidermal keratinocytes (HuMedia-KG2, KURABO INDUSTRIES LTD.) supplemented with hEGF (0.1 ng/ml), insulin (10 μg/ml), hydrocortisone (0.5 μg/ml), gentamycin (50 μg/ml), amphotericin B (50 ng/ml), and bovine brain pituitary extract (BPE) (0.4%, v/v) were added to the plate, and the cells were cultured under the conditions of 37° C. and 5% CO2 for from 3 to 4 days until the 80 to 85% confluent state was achieved.
(§3) 2) Next, a DMSO solution of Compound 1 was added to the medium at 1 μM per well, and culture was further conducted for 3 days without changing the medium. In addition, regarding the system to which only CaCl2 (1.5 mM in terms of Ca) as Ca was added and the system to which both Compound 1 and CaCl2 (1.5 mM in terms of Ca) as Ca were added, the culture was conducted in a similar manner for 3 days. As a control example, a solvent only (vehicle) was added.
3) An extraction reagent (TRIzol™, Invitrogen) was used, and according to the manufacturer's protocol, total RNA was extracted from each of cells treated in the step 2). […]

[2] = test system: GPR142; assay: G protein-coupled receptor (GPCR) array in NHEK cells, GPR142 (Example 3); conditions: Compound 1 1 μM, 3 days
Description: as §1, §2, §3
3) An extraction reagent (TRIzol™, Invitrogen) was used, and according to the manufacturer's protocol, total RNA was extracted from each of cells treated in the step 2). A reverse transcriptase reagent (Prime Script™, Takara) was used, and according to the manufacturer's protocol, cDNA was prepared from the total RNA. Next, a TaqMan™ human GPCR array (AB 4365295, Applied Biosystems) was used, and the analysis was conducted by an ABI PRISM™ 7900HT gene analyzer (Applied Biosystems). The result of measurement was shown as the comparison of the cycle number (ΔCt value) to 18S ribosomal RNA as a control (comparative Ct method).

[3] = test system: GPR142; assay: FLG mRNA and GPR142 mRNA in GPR142-overexpressing NHEK cells (Example 7); conditions: 10 nM, 1 day
Description: In this example, the FLG mRNA expression-inducing effect of Compound 1 in GPR142-overexpressing NHEK cells was confirmed.
1) 5×10^4 cells/well of NHEK cells (Invitrogen) were plated on a 24-well plate. Then, a culture medium containing a medium for proliferating normal human epidermal keratinocytes (HuMedia-KG2, KURABO INDUSTRIES LTD.) supplemented with hEGF (0.1 ng/ml), insulin (10 μg/ml), hydrocortisone (0.5 μg/ml), gentamycin (50 μg/ml), amphotericin B (50 ng/ml), and bovine brain pituitary extract (BPE) (0.4%, v/v) was added to the plate, and the cells were cultured under the conditions of 37° C. and 5% CO2.
2) A GPR142pCXN mammalian expression vector was prepared by incorporating a human GPR142 gene coding region containing the base sequence set forth in SEQ ID NO: 2 into the EcoRI restriction site of the cloning site in a mammalian expression vector pCXN (Gene 108: 193-199 (1991)). […]
5) An extraction reagent (TRIzol™, Invitrogen) was used, and according to the manufacturer's protocol, total RNA was extracted from each of cells treated with the medicament. […] Real-time PCR was conducted by using the same primers as those for GPR142, FLG, and GAPDH used in Example 4 and SYBR™ PremixEx Taq (Takara) with a CFX96 real-time PCR instrument according to the manufacturer's protocol, and the amounts of GPR142 mRNA and FLG mRNA were measured. […]

[4] = CaCl2 1.5 mM in terms of Ca, control 29.2

SMILES: CCc1ccc(OCc2ccccc2C(=O)Nc2ccc3nc(C)cc(N)c3c2)cc1.Cl [Compound 1, N-(4-Amino-2-methyl-6-quinolyl)-2-[(4-ethylphenoxy)methyl]benzamide hydrochloride]
- GPR22 mRNA expression (GPCR array), in words ([1]; Ca 1.5 mM): expression was induced
- GPR22: cycle number (ΔCt value) to 18S ribosomal RNA [1, 4]: 6.7
- GPR142 mRNA expression (GPCR array), in words ([2]; Ca 1.5 mM): expression was induced
- GPR142: cycle number (ΔCt value) to 18S ribosomal RNA [2, 4]: −4.9
- FLG mRNA expression (GAPDH ratio) ([3]; GPR142-overexpressing NHEK cells): increased FLG mRNA expression
- expression amount of GPR142 mRNA, increase as compared to the control ([3]; NHEK cells): about 2.2 times
